Measurements from patent publication US11166959B2, “Isofuranone compounds useful as HPK1 inhibitors” (BRISTOL-MYERS SQUIBB COMPANY, priority 2017, dated 2021).
Where two headings read alike, the source gives them in different places.

How the values were obtained:
IRAK4 = biological target: T1, IRAK4 (Homo sapiens, UniProt Q9NWZ3); assay: IRAK4 Inhibition Assay (kinase reaction, Caliper capillary electrophoresis); format: biochemical; details: 500 μM ATP, 11 concentrations
T1 construct: 1 nM IRAK4 (160-460); purchased SignalChem M24016
T1 sequence (Q9NWZ3 160-460): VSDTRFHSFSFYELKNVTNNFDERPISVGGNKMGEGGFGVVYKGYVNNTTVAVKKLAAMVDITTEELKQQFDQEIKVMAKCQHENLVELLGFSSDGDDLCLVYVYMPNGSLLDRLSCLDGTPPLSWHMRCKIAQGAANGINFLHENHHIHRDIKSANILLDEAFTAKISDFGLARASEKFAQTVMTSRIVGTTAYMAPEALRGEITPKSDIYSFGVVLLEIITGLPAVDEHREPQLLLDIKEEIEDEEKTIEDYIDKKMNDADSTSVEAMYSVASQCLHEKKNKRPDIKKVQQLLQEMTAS
Description: (§1) The reactions were incubated out for three hours and quenched with 1 mM EDTA solution. The reaction incubation time and enzyme concentration were optimized to obtain a maximum peptide substrate conversion of 20-30%. The reaction mixtures were analyzed by capillary electrophoresis on a Caliper LabChip EZ Reader to resolve phosphorylated and unphosphorylated peptide species and determine peptide substrate conversion. […] The compounds were dissolved in DMSO and evaluated at 11 concentrations to determine IC50 values.

HPK1 = biological target: T2, HPK1 (Homo sapiens, UniProt Q92918); assay: HPK1 Inhibition Assay (kinase reaction, Caliper capillary electrophoresis); format: biochemical; details: for IRAK4/HPK1 Ratio: ratio of the IRAK4 IC50 value to the HPK1 IC50 value
T2 construct: purchased SignalChem M23-11G
T2 sequence (Q92918 1-346 limits assumed): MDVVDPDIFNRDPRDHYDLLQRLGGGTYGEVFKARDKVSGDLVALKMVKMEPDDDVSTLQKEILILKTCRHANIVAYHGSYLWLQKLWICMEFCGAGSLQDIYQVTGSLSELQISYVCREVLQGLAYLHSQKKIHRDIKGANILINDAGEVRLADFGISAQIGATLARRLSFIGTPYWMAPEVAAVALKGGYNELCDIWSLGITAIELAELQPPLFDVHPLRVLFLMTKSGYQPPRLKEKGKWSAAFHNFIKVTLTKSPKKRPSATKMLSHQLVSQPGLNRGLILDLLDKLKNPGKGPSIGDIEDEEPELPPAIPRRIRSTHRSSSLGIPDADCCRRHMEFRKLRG
Description: as §1, with “to determine the IC50 values.” for “to determine IC50 values.”

[1] = 0.625 nM HPK1, 22 μM ATP, 11 concentrations, read-out: HPK1 IC50

| SMILES | IC50 (IRAK4) [nM] | IC50 (HPK1; [1]) [nM] | IRAK4/HPK1 Ratio (HPK1) | IC50 (HPK1) [nM] |
| --- | --- | --- | --- | --- |
| O=C1OCc2cc(Nc3ncc(-c4ncccn4)c(N[C@H](CO)c4ccccc4)n3)ccc21 [Example 1, 5-[(4′-{[(1S)-2-hydroxy-1-phenylethyl]amino}-[2,5′-bipyrimidine]-2′-yl)amino]-1,3-dihydro-2-benzofuran-1-one] | 250 to 1000 | < 50 | B (B=10 to 50) |  |
| CC1(C)OC(=O)c2ccc(Nc3cc(N[C@H](CO)c4ccccc4)c(-c4nc(C5CN6CCC5(F)CC6)no4)cn3)nc21 (stereo partly drawn) [Example 83, 2-{[5-(3-{4-fluoro-1-azabicyclo[2.2.2]octan-3-yl}-1,2,4-oxadiazol-5-yl)-4-{[(1S)-2-hydroxy-1-phenylethyl]amino}pyridin-2-yl]amino}-7,7-dimethyl-5H,7H-furo [3,4-b]pyridin-5-one] | 50 to 250 |  | C (C=>50) | < 50 |
| CN(C)C12CC(c3noc(-c4cnc(Nc5ccc6c(c5)C(C)(C)OC6=O)nc4N[C@H](CO)c4ccccc4)n3)(C1)C2 [Example 48, 5-[(5-{3-[3-(dimethylamino)bicyclo[1.1.1]pentan-1-yl]-1,2,4-oxadiazol-5-yl}-4-{[(1S)-2-hydroxy-1-phenylethyl]amino}pyrimidin-2-yl)amino]-3,3-dimethyl-1,3-dihydro-2-benzofuran-1-one] | 250 to 1000 | < 50 | C (C=>50) |  |
| CN(C)CCNC(=O)c1cnc(Nc2ccc3c(c2)C(C)(C)OC3=O)nc1N[C@H](CO)c1ccccc1 [Example 9, 2-[(3,3-dimethyl-1-oxo-1,3-dihydro-2-benzofuran-5-yl)amino]-N-[2-(dimethylamino)ethyl]-4-{[(1S)-2-hydroxy-1-phenylethyl]amino}pyrimidine-5-carboxamide] | 250 to 1000 | < 50 | B (B=10 to 50) |  |
| CC1(C)OC(=O)c2ccc(Nc3ncc(C(=O)NCCCN4CCOCC4)c(N[C@H](CO)c4ccccc4)n3)cc21 [Example 7, 2-[(3,3-dimethyl-1-oxo-1,3-dihydro-2-benzofuran-5-yl)amino]-4-{[(1S)-2-hydroxy-1-phenylethyl]amino}-N-[3-(morpholin-4-yl)propyl]pyrimidine-5-carboxamide] | 250 to 1000 | < 50 | B (B=10 to 50) |  |
| CC1(C)OC(=O)c2ccc(Nc3ncc(C(=O)NCC4(CN5CCOCC5)CC4)c(N[C@H](CO)c4ccccc4)n3)cc21 [Example 26, 2-[(3,3-dimethyl-1-oxo-1,3-dihydro-2-benzofuran-5-yl)amino]-4-{[(1S)-2-hydroxy-1-phenylethyl]amino}-N-({1-[(morpholin-4-yl)methyl]cyclopropyl}methyl)pyrimidine-5-carboxamide] | 250 to 1000 | < 50 | C (C=>50) |  |
| CC1(C)OC(=O)c2ccc(Nc3cc(NCc4nccs4)c(-c4nc(C56CCN(CC5)CC6)no4)cn3)nc21 [Example 84, 2-{[5-(3-{1-azabicyclo[2.2.2]octan-4-yl}-1,2,4-oxadiazol-5-yl)-4-{[(1,3-thiazol-2-yl)methyl]amino}pyridin-2-yl]amino}-7,7-dimethyl-5H,7H-furo[3,4-b]pyridin-5-one] | 250 to 1000 | < 50 | C (C=>50) |  |
| CC1(C)OC(=O)c2ccc(Nc3ncc(-c4nc(-c5cccnc5)no4)c(N[C@H](CO)c4ccccc4)n3)cc21 [Example 43, 5-[(4-{[(1S)-2-hydroxy-1-phenylethyl]amino}-5-[3-(pyridin-3-yl)-1,2,4-oxadiazol-5-yl]pyrimidin-2-yl)amino]-3,3-dimethyl-1,3-dihydro-2-benzofuran-1-one] | 250 to 1000 | < 50 | C (C=>50) |  |
| CCOC(=O)c1cnc(Nc2ccc3c(c2)C(C)(C)OC3=O)nc1NCCC(C)(C)N [Example 76, Ethyl 4-[(3-amino-3-methylbutyl)amino]-2-[(3,3-dimethyl-1-oxo-1,3-dihydro-2-benzofuran-5-yl)amino]pyrimidine-5-carboxylate] | 250 to 1000 | 50 to 250 | B (B=10 to 50) |  |
